In the supplement of paper PMC10331698:
± gives the standard deviation of the averaged measurements.

Columns and labels:
Test in all cases: level (log10 ratio to DMSO vehicle control); higher = higher biomarker level / cell amount than vehicle control
Perfluoropropanoic acid = compound: O=C(O)C(F)(F)C(F)(F)F [Perfluoropropanoic acid]; settings: in DMSO
Experimental: (§1)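 BioMAP Diversity Plus panel of 12 human primary cell co-culture systems (3C, 4H, LPS, SAg, BT, BF4T, BE3C, CASM3C, HDF3CGF, KF3CT, MyoF, Mphg). Compounds were added 1 h before stimulation and left for 24 h (MyoF 48 h; BT 72 h for soluble read-outs or 6 d for IgG). Biomarkers were read by ELISA, cytotoxicity by SRB, PBMC viability and proliferation by Alamar Blue. Each well value was divided by the mean of 8 DMSO control wells on the same plate and log10 transformed; duplicate blinded samples were tested at 4 concentrations.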

[1] = compound: C=CC(=O)OCC(F)(F)C(F)(F)C(F)(F)C(F)(F)C(F)(F)C(F)(F)C(F)(F)F [1H,1H-Perfluorooctyl acrylate]; settings: in DMSO
Experimental: as §1

[2] = compound: OCCCC(F)(F)C(F)(F)C(F)(F)C(F)(F)C(F)(F)C(F)(F)C(F)(F)F [7:3 Fluorotelomer alcohol]; settings: 6700 nM; in DMSO
Experimental: as §1

[3] = compound: FC(F)C(F)(F)COCC1CO1 [((2,2,3,3-Tetrafluoropropoxy)methyl)oxirane]; settings: in DMSO
Experimental: as §1

[4] = compound: CCN(CCO)S(=O)(=O)C(F)(F)C(F)(F)C(F)(F)C(F)(F)C(F)(F)C(F)(F)C(F)(F)C(F)(F)F [N-Ethyl-N-(2-hydroxyethyl)perfluorooctanesulfonamide]; settings: in DMSO
Experimental: as §1

Perfluorodecanoic acid = compound: O=C(O)C(F)(F)C(F)(F)C(F)(F)C(F)(F)C(F)(F)C(F)(F)C(F)(F)C(F)(F)C(F)(F)F [Perfluorodecanoic acid]; settings: in DMSO
Experimental: as §1

Heptafluorobutyramide = compound: NC(=O)C(F)(F)C(F)(F)C(F)(F)F [Heptafluorobutyramide]; settings: in DMSO
Experimental: as §1

Test System | level (log10) (Perfluoropropanoic acid; 6700 nM) | level (log10) (Perfluoropropanoic acid; 20000 nM) | level (log10) (Perfluoropropanoic acid; 60000 nM) | level (log10) ([1]; 6700 nM) | level (log10) ([1]; 20000 nM) | level (log10) ([1]; 60000 nM) | level (log10) [2] | level (log10) ([3]; 6700 nM) | level (log10) ([3]; 20000 nM) | level (log10) ([3]; 60000 nM) | level (log10) ([4]; 6700 nM) | level (log10) ([4]; 20000 nM) | level (log10) (Perfluorodecanoic acid; 6700 nM) | level (log10) (Perfluorodecanoic acid; 20000 nM) | level (log10) (Heptafluorobutyramide; 6700 nM) | level (log10) (Heptafluorobutyramide; 20000 nM) | level (log10) (Heptafluorobutyramide; 60000 nM)
SAg:SRB | -0.01 ± 0.0028 | -0.014 ± 0.0042 | -0.0035 ± 0.00071 | -0.0005 ± 0.0035 | -0.002 ± 0.0028 | 0.0075 ± 0.0021 | 0.0045 ± 0.013 | -0.007 ± 0.0057 | -0.0075 ± 0.0064 | -0.005 ± 0.014 | -0.046 ± 0.0057 | -0.118 ± 0.024 | -0.0035 ± 0.012 | -0.008 ± 0.013 | -0.018 ± 0.025 | -0.0125 ± 0.011 | -0.0095 ± 0.018
BF4T:Keratin 8/18 | -0.032 ± 0.0028 | -0.004 ± 0.0014 | 0.027 ± 0.016 | 0.02 ± 0.0014 | 0.0005 ± 0.035 | -0.0035 ± 0.053 | 0.0045 ± 0.0035 | 0.0005 ± 0.005 | -0.008 ± 0.014 | -0.0025 ± 0.042 | -0.002 ± 0.0014 | -0.0005 ± 0.0021 | 0.011 ± 0.0028 | -0.335 ± 0.042 | -0.0015 ± 0.03 | 0.0065 ± 0.026 | 0.0055 ± 0.057
BT:sIL-6 | 0.021 ± 0.023 | -0.0015 ± 0.0035 | 0.035 ± 0.024 | -0.088 ± 0.0042 | -0.103 ± 0.031 | -0.242 ± 0.045 | -0.0125 ± 0.073 | 0.054 ± 0.051 | 0.0155 ± 0.0064 | -0.0365 ± 0.005 | 0.078 ± 0.0014 | -0.049 ± 0.054 | -0.029 ± 0.071 | 0.077 ± 0.058 | 0.0565 ± 0.0078 | -0.013 ± 0.0071 | -0.0215 ± 0.046
BF4T:uPA | -0.0035 ± 0.033 | 0.0105 ± 0.037 | 0.019 ± 0.033 | -0.002 ± 0.0014 | 0.0035 ± 0.00071 | 0.001 ± 0.0042 | -0.011 ± 0.0057 | -0.003 ± 0.0028 | -0.0005 ± 0.013 | 0.0135 ± 0.036 | 0.008 ± 0.0028 | 0.0055 ± 0.012 | 0.015 ± 0.011 | -0.235 ± 0.043 | -0.0045 ± 0.03 | -0.006 ± 0.013 | -0.006 ± 0.014
LPS:CCL2/MCP-1 | -0.011 ± 0.014 | -0.008 ± 0.031 | 0.019 ± 0.068 | -0.003 ± 0.017 | -0.0045 ± 0.005 | 0.005 ± 0.0099 | -0.026 ± 0.023 | 0.006 ± 0.0085 | -0.007 ± 0.0099 | 0.01 ± 0.013 | -0.017 ± 0.025 | -0.0535 ± 0.012 | -0.0005 ± 0.012 | -0.0015 ± 0.0064 | 0.0255 ± 0.0035 | 0.0105 ± 0.0078 | 0.0275 ± 0.057
BF4T:CD106/VCAM-1 | -0.021 ± 0.065 | 0.003 ± 0.072 | 0.026 ± 0.095 | -0.0105 ± 0.0021 | -0.04 ± 0.0014 | -0.049 ± 0.011 | -0.0255 ± 0.0021 | 0.003 ± 0.0028 | -0.003 ± 0.0057 | 0.0185 ± 0.043 | -0.039 ± 0.0085 | -0.0615 ± 0.0092 | -0.026 ± 0.0085 | -0.311 ± 0.0042 | -0.006 ± 0.0014 | -0.013 ± 0.0085 | 0.021 ± 0.069
BF4T:CD54/ICAM-1 | 0.006 ± 0.021 | -0.0045 ± 0.047 | 0.018 ± 0.027 | -0.0105 ± 0.005 | -0.0165 ± 0.0035 | -0.0295 ± 0.0092 | -0.0065 ± 0.022 | -0.005 ± 0.0099 | -0.0065 ± 0.0064 | -0.002 ± 0.0057 | 0.0495 ± 0.016 | 0.032 ± 0.0042 | -0.0305 ± 0.0064 | -0.181 ± 0.011 | -0.0065 ± 0.011 | -0.013 ± 0.0042 | 0.0015 ± 0.015
